Test results from ChEMBL document CHEMBL1126848, “Concepts and progress in the development of peptide mimetics” (J Med Chem, 1993).

Experiments:
Mus musculus [1] = experiment: Concentration required toTRH reduced mean latencies mimetics in mice after i.p. administration using the Morris water maze test; 0.003-3; type: functional, organism-based
Mus musculus [2] = experiment: Concentration required toTRH reduced mean latencies mimetics in mice after p.o. administration using the Morris water maze test; 0.003-3; type: functional, organism-based

## NC(=O)C[C@@H]1C[C@H](Cc2c[nH]cn2)C[C@H](C[C@@H]2CCC(=O)N2Cc2ccccc2)C1
Mus musculus [1]
  Concentration: 0.003 mg/kg
Mus musculus [2]
  Concentration: 0.003 mg/kg
